Measurements from US6833146B2, “Powered beverage mix with rapidly dissolving calcium” (Unilab Pharmatech, Ltd., priority 2002, dated 2004).

Columns and labels:
[1] = Simulated Hand Stirring Test (calcium sedimentation after stirring a unit dose in water); assay type: physicochemical; details: for Sweetener/calcium ratio to pass 60-second Simulated Hand Stirring Test: calcium hydroxide providing 300 mg calcium per unit dose, citric acid 0.96 gram per unit dose, 200 ml water at 25° C., 200 rpm; for calcium base reacts fast enough with the acid for minimal calcium sedimentation: with appropriate amount of sugar, stirred for less than about 60 seconds by hand; for Acid required/Dose: citric acid to pass 60-second test
Experimental: A magnetic stir bar (9.5×50.8 mm, catalogue no. 58948-980, VWR Spinbar®, USA) is placed in a 250-ml Pyrex® beaker (catalogue no. 1000-250, Corning, USA) to which 200 ml of water at 25° C. is added. The beaker is placed on top of a digital magnetic stirrer (Cole Parmer, USA) and the speed set at 200 rpm. A unit dose of a powdered mix is then added to the water and stirred for a given period of time, after which the beaker is removed and calcium sedimentation evaluated on a 1-10 scale, with 1 denoting no visible calcium sedimentation. A rating of 2 denoting very minimal calcium sedimentation, which is visually acceptable, is set as the minimum dissolution criterion.
Hereafter, this test will be referred to as the “Simulated Hand Stirring Test”. When the stirring time is 60 seconds, the test is referred to as the “60-second Simulated Hand Stirring Test”.

Solubility in water = assay type: physicochemical
[2] = cited from earlier work

Structure (SMILES): OC[C@@H](O)[C@@H](O)[C@H](O)[C@@H](O)CO [Sorbitol, reference compound]
- Sweetener/calcium ratio to pass 60-second Simulated Hand Stirring Test [1]: 95

Structure (SMILES): O=C(O)/C=C/C(=O)O [Fumaric acid, reference compound]
- calcium sedimentation with fumaric acid as the acid ([1]; 555 mg calcium hydroxide (300 mg calcium), 26 grams sucrose, fumaric acid at three times the stoichiometric amount): significant calcium sedimentation
- times more soluble than calcium hydroxide (Solubility in water): about four
- solubility in water [2]: 0.63 gram per 100 ml of water

Structure (SMILES): O=C(O)CC(O)C(=O)O (stereo not drawn) [malic acid]
- times more soluble than calcium hydroxide (Solubility in water): about 300 times

Structure (SMILES): [Ca+2].[OH-].[OH-] [Calcium hydroxide]
- calcium base reacts fast enough with the acid for minimal calcium sedimentation [1]: will react fast enough

Structure (SMILES): [O]=[Ca] [Calcium oxide, reference compound]
- calcium base reacts fast enough with the acid for minimal calcium sedimentation [1]: may not react fast enough

Structure (SMILES): O=C(CO)[C@@H](O)[C@H](O)[C@H](O)CO [Fructose]
- Sweetener/calcium ratio to pass 60-second Simulated Hand Stirring Test [1]: 45
- Acid required/Dose ([1]; fructose On Mesh 20 (> 841 micron), 22 g fructose/dose, 500 mg calcium/dose): 2.0
- Acid required/Dose ([1]; fructose On Mesh 20, 6 g fructose/dose, 150 mg calcium/dose): 0.5
- Acid required/Dose ([1]; fructose On Mesh 20, 16 g fructose/dose, 300 mg calcium/dose): 1.0
- Acid required/Dose ([1]; fructose Through mesh 40 (< 420 micron), 22 g fructose/dose, 500 mg calcium/dose): 2.0
- Acid required/Dose ([1]; fructose Through mesh 40, 6 g fructose/dose, 150 mg calcium/dose): 0.5
- Acid required/Dose ([1]; fructose Through mesh 40, 16 g fructose/dose, 300 mg calcium/dose): 1.0

Structure (SMILES): OC[C@H]1O[C@@](CO)(O[C@H]2O[C@H](CO)[C@@H](O)[C@H](O)[C@H]2O)[C@@H](O)[C@@H]1O [Sucrose]
- Sweetener/calcium ratio to pass 60-second Simulated Hand Stirring Test [1]: 60
